The values that follow come from a melting point compilation (Tetko et al.; mined from patent text by program, amines drawn as free bases though some values may be those of a salt).

In the case of `O=C1OC(c2ccccc2)=NC1Cc1ccccc1` (racemic), the melting point lay within 70 to 72 °C.

In turn, `CC1Cc2cc3c(cc2C(c2ccc([N+](=O)[O-])cc2)=NN1C#N)OCO3` (configuration not stated) gave a melting point of 172 to 176 °C.

Turning to `CN(Cc1ccc2c(Br)c(O)ccc2c1)C(=O)c1oc2ccccc2c1CCc1ccccc1`, the melting point is 108 to 110 °C.

`O=C1N(Cc2ccc3ncnn3c2)c2ccccc2C12COc1cc3c(cc12)OCCO3` (configuration not stated) yielded a melting point of 207 to 209 °C.

For the molecule `Cc1ccc(-c2cccc(/C=C/C(=O)Nc3ccc(CN4CCCCC4)cc3)c2)cc1`, the melting point lay in the range of 154 to 156 °C.

`COc1ccc(N2CCN(c3ccc(-n4cnn(CC(F)(F)F)c4=O)cc3)CC2)cc1` had a melting point of 208 °C.

Regarding `CC(C)[C@H]1CC[C@H](O)C=C1S(=O)(=O)c1ccccc1`, the melting point was found to be 105 °C.

`Cc1oc(-c2ccc(-c3ccccc3)cc2)nc1CCOc1ccc(C[C@H](OCC(F)(F)F)C(=O)O)c2ccccc12` returned a melting point of 199 to 200 °C.

The molecule `CCCCOc1cc2c3c(ccc4c5ccc6c7c(cc(OCCCC)c(c1c34)c75)-c1ccccc1C6=O)C(=O)c1ccccc1-2` yielded a melting point of 275 to 280 °C.

As for `COC(=O)c1cccc(CN2C(=O)C(CCO)Oc3ccccc32)c1` (configuration not stated), the melting point lay within 73 to 75 °C.

`CC(CCCO)C1CCC2C3CCC4CC(O)CCC4(C)C3CC(O)C12C` (configuration not stated) had a melting point of 110 to 116 °C.

`CC(=O)Nc1ncnc2[nH]nc(C#N)c12` came in with a melting point of over 360 °C.

With `COc1ccc2c(c1)C(CCCCNC(C)=O)=CCC2`, the melting point was 79 to 81 °C.

In turn, `O=c1ccc2cc([C@H](c3cccc(C(F)(F)F)c3)n3cncn3)ccc2[nH]1` returned a melting point of 176 °C.

As for `CCOC(=O)c1cc2c(Cl)cccc2n1CC#N`, the melting point is 143 to 144 °C.

In turn, `CC(=O)Oc1c(C)c(C)nc2ccccc12` yielded a melting point of 93 to 94 °C.

`O=C(O)c1ccc2c(c1)CCc1ccc(O)cc1C2=O` gave a melting point of 256 to 257 °C.

Take `CCOC(=O)C(C(=O)OCC)c1ccc(Br)cc1[N+](=O)[O-]`: the melting point lay within 54 to 55 °C.

Consider `Cc1ccc(Sc2ccc(C(=O)O)cc2)cc1`, for which the melting point was in the range of 105 to 107 °C.

In turn, `COCCc1nc2c(N)nc3cc(Br)ccc3c2s1` returned a melting point of 172 to 175 °C.

`COc1ccc(CCNCCc2ccc(OC)c(OC)c2)cc1OC` registered a melting point of 56 to 58 °C.

`O=C(NC(Cc1ccccc1)c1ccc(O)cc1)C(c1ccccc1)c1ccccc1` (configuration not stated) displayed a melting point of 67 to 69 °C.

`CCc1nc2c(n1C(CC)CC)C(=O)N(C)CN2c1ccc(Cl)cc1Cl` yielded a melting point of 132 to 133 °C.

With `COc1ccc(OCc2ccc(OCc3nc(-c4ccccc4)oc3C)cc2)c(CC(=O)O)c1`, the melting point was 134 to 136 °C.

Take `O=S(=O)(C#Cc1ccccc1)c1ccccc1`: the melting point was 73 °C.

Consider `Nc1cc(C(=O)O)cc(SCc2ccccc2)c1Oc1ccccc1`, for which the melting point was in the range of 159 to 161 °C.

For `COc1cc(C)cc(OC)c1C(=O)CCl`, the melting point lay within 82 to 84 °C.

Turning to `COc1ccc(-c2nn(CC(C)C)c(=O)c(CO)c2-c2ccc(OC)cc2)cc1`, the melting point was 121 to 122 °C.

`CC1=NN(CCCn2ccnc2)Cc2cc3ccccn3c21`: the melting point lay within 162 to 163 °C.

On to `CC(C)Cc1ccc2nc(Cl)cn2n1`, for which the melting point is 71 to 72.5 °C.

For the molecule `CCOc1cc([N+](=O)[O-])ccc1C(O)c1cc(C)ccn1` (configuration not stated), the melting point is 114 to 115 °C.

With `Clc1ccc2c(Nc3ccccc3)ncnc2c1`, the melting point fell in the range of 215 to 217 °C.

`Nn1ccn(C2CCc3ccccc3C2)c1=S` (configuration not stated) gave a melting point of 187 to 189 °C.

`O=C(OCC(O)CO)c1cc(F)ccc1Nc1ccnc2c(C(F)(F)F)cccc12` (configuration not stated) showed a melting point of 197 to 198 °C.

In the case of `CC(C)CCCC(C)C1CCC2C3CC=C4CCCC(O)C4(C)C3CCC12C` (configuration not stated), the melting point lay within 102 to 103 °C.

As to `COC(=O)CCCCc1ccc(CCNC(C)=O)cc1`, the melting point lay in the range of 57 to 59 °C.

`CC1COC(=O)N1c1cc(-c2ncnc(Nc3cccc(Cl)c3)n2)ccn1` (configuration not stated) came in with a melting point of 191 to 193 °C.

For the molecule `CN1CCC(C(O)(c2ccn(C)c2)c2ncc[nH]2)CC1` (configuration not stated), the melting point worked out at 171 °C.

Consider `CCCCn1cc(C=C2SC(=S)N(CC(=O)O)C2=O)c2ccccc21`, for which the melting point lay in the range of 280 to 285 °C.

For `CN1C(=O)[C@H](NC(=O)/C=C/c2ccc(Cl)c(Cl)c2)N=C(c2ccccc2)c2ccccc21`, the melting point was in the range of 145 to 147 °C.

The molecule `Cc1cc(C)cc(C(=O)N2CCC(Oc3nc4ccccc4n3Cc3ccc(F)cc3)CC2Cc2ccccc2)c1` (configuration not stated) registered a melting point of 154 °C.

The molecule `COc1ccc(N(C(=O)C(C)c2ccccc2)c2cccc(Nc3c(N)c(=O)c3=O)c2)cc1` (configuration not stated) came in with a melting point of 168 to 170 °C.

`CC(=O)COc1ccc(O)cc1` yielded a melting point of 110 to 112 °C.

As to `O=S(=O)(c1ccc(F)cc1)N1CCC(Nc2nc(OCC(F)(F)F)nc(-c3ccc(F)cc3)n2)CC1`, the melting point lay within 183 to 185 °C.

As to `N#CC(=CN1CCOCC1)Cc1ccc2c(c1)OCO2`, the melting point lay in the range of 85 to 85.5 °C.

`Cc1sc(C(=O)OCc2ccccc2)cc1[N+](=O)[O-]` showed a melting point of 57 to 58 °C.

Take `O=[N+]([O-])c1ccc(OC2(c3ccccc3)CCN(Cc3ccccc3)CC2)cc1`: the melting point was 135 to 137 °C.

Molecule `CCOC12CC(C)(C)C(O1)C(OC(=O)c1ccc(N)cc1)C=C2C` (configuration not stated) displayed a melting point of 130 to 132 °C.

Molecule `OC(CNC1CCc2ccccc2C1)COc1cccc2[nH]ccc12` (configuration not stated) returned a melting point of 65 to 68 °C.

On to `Cc1cccc(CC(=O)c2ccnc(-c3ccc(N4CCOCC4)cc3)c2)n1`, for which the melting point turned out to be 114 °C.

For `CCCNC(=O)C1(CC=Cc2ccccc2)c2ccccc2CCc2ccccc21`, the melting point came to 159 °C.

`CC(=O)OCC(CCn1cnc2nc(N)ncc21)COC(C)=O` returned a melting point of 137 to 139 °C.

Molecule `O=C(O)Cc1ccc(CNC(=O)C2Cc3ccccc3N2S(=O)(=O)c2ccc(-c3cccc(C(F)(F)F)c3)cc2)c(F)c1` (configuration not stated) showed a melting point of 99 to 105 °C.

`Cc1cc(C)c(Nc2nc(C)ccc2S(=O)(=O)c2ccc(OCc3cc(Cl)nc(Cl)c3)cc2)c(C)c1` came in with a melting point of 192 to 201 °C.

In turn, `CC(C)n1cnc(N2CCc3ccccc3CC2)c(C#N)c1=O` returned a melting point of 152 to 154 °C.

In the case of `CNS(=O)(=O)CC(=O)c1cc(OC)c(OC)c(OC)c1N`, the melting point lay in the range of 125 to 127 °C.

As for `CC12CCC3c4ccc(O)cc4CCC3C1CCC2OC(=O)c1cccnc1` (configuration not stated), the melting point fell in the range of 221 to 222 °C.

Consider `CCCOc1ccc(S(=O)(=O)Cl)cc1C(N)=O`, for which the melting point is 122 to 129 °C.

`OCCn1nc(-c2ccc(F)cc2)c(-c2ccncc2)c1C1CC1` yielded a melting point of 155 to 157 °C.

Take `Cc1c(C)c2c(c(C)c1NC(=O)c1ccccc1)CC(C)(C)O2`: the melting point fell in the range of 263 to 265 °C.

`COC(=O)[C@H](COC(C)(C)C)NC(=O)[C@@H](NC(=O)[C@H](Cc1ccccc1)NC(=O)[C@@H](NC(=O)OCc1ccccc1)[C@@H](C)OC(C)(C)C)[C@@H](C)OC(C)(C)C` registered a melting point of 114 to 115 °C.

With `COC(=O)C(NC(=O)C=Cc1ccccc1)C(=O)C(C)C` (configuration not stated), the melting point fell in the range of 74 to 75 °C.

`N#Cc1c[nH]cc1-c1cccc(F)c1` showed a melting point of 140 to 142 °C.

Turning to `O=C(O)c1cccc(NC(=S)Nc2ccc3c(Cl)c(OCCBr)oc(=O)c3c2)c1`, the melting point was in the range of 157 to 158 °C.

For `O=C(Nc1ccc2ccc(Cl)nc2n1)c1ccncc1`, the melting point stood at 220 °C.

The molecule `Cc1cc(-c2cnn3c(C(F)F)cc(-c4ccc(C(F)(F)F)cc4)nc23)ccn1` gave a melting point of 213 °C.

In the case of `CCOC(=O)C(=O)c1cn(Cc2ccc(C(C)(C)C)cc2)c2cc(-c3ccc(C(F)(F)F)cc3)ccc12`, the melting point lay within 164 to 165 °C.

Molecule `Cc1cccc2nnc(-c3ccccc3)c(Cl)c12` registered a melting point of 128 °C.

As to `CN1C(=N)c2c(Cl)cccc2S1(=O)=O`, the melting point fell in the range of 92.5 to 95 °C.

On to `C=C1/C(=C\C=C2/CCC[C@@]3(C)[C@H]2CC[C@@H]3[C@]2(C)C[C@H](CC(C)(C)O)CO2)C[C@@H](O)C[C@@H]1O`, for which the melting point was 128 °C.

`CC(C)(C)n1ncc(OCc2ccc(Oc3ccc(Cl)cc3)nc2)c(Cl)c1=O` showed a melting point of 150 to 154 °C.

`COc1ccc(-c2cc(F)c(F)cc2-c2ccc(S(N)(=O)=O)cc2)cc1OC` showed a melting point of 157 to 158 °C.

`O=Cc1cccn1CCN1CCC(=C2c3ccccc3CCn3ccnc32)CC1` yielded a melting point of 158 °C.

Consider `CCCCc1ccc2c(=O)c(O)c(-c3cc(O)c(O)c(O)c3)oc2c1`, for which the melting point came out at 142 °C.

The molecule `Cc1cccc(C)c1NC(=O)c1ccc(O)cc1` yielded a melting point of 232 to 234 °C.

`N#CC=C(C#N)Nc1ccccc1` displayed a melting point of 123 to 126 °C.

For `OCC1(Nc2nc(-c3ccc(Br)cc3)cs2)CC1`, the melting point is 129 to 131 °C.

`Cn1c(C(F)(F)F)cc(=O)n(-c2cc(Oc3ncccc3[N+](=O)[O-])c(Cl)cc2F)c1=O` came in with a melting point of 177 to 179 °C.

As to `COc1cc(N2CCNCC2)c2ncccc2c1`, the melting point was in the range of 105 to 107 °C.

Regarding `CC(=O)c1nn(CCOS(C)(=O)=O)cc1C`, the melting point was in the range of 108 to 109 °C.

As for `COc1ccc(NC(=N)c2ccccn2)cc1`, the melting point lay within 73 to 75 °C.

As for `CC12CCC3C(CCC4(O)CC(O)CCC34CO)C1(O)CCC2c1ccnnc1` (configuration not stated), the melting point lay within 138 to 140 °C.

As to `CS(=O)(=O)c1ccc(-c2cc(C=O)cn2-c2ccc(F)cc2)cc1`, the melting point lay within 98 to 100 °C.

For `CCCC(NS(=O)(=O)c1ccc(Cl)cc1)C(=O)Nc1ccc(CC(=O)OCC)cc1` (racemic), the melting point lay in the range of 93 to 95 °C.

Molecule `O=C(Nc1ccc(S(=O)(=O)C(F)(F)F)cc1Cl)c1cc(Cl)c2ccccc2c1O` yielded a melting point of 234 °C.

Turning to `CCCC=C(OC(C)=O)C(=Cc1ccc(Cl)cc1)n1cncn1`, the melting point fell in the range of 112 to 113 °C.

Regarding `O=C1N[C@H](Cc2ccc(C(F)(F)F)cc2)[C@H](c2ccc(Oc3ccccc3)cc2)O1` (racemic), the melting point fell in the range of 110 to 111 °C.
